Columns and labels:
Format in all cases: in vivo, rice
[1] = tested on: single trait mutant lines (P1003A205V, R0146G654E); assay: 16GH-T7 greenhouse Imazamox trial, injury in single trait mutant lines; settings: Imazamox 0.5× to 4× at about preflood stage, alone or 2 weeks after 1× Imazethapyr
Text: (§1) FIG. 3A to FIG. 3I illustrate the results of Example 1: FIG. 3A control; FIG. 3B 0.5× Imazamox; FIG. 3C 1× Imazamox; FIG. 3D 2× Imazamox; FIG. 3E 4× Imazamox; FIG. 3F 1× Imazethapyr+0.5× Imazamox; FIG. 3G 1× Imazethapyr+1× Imazamox; FIG. 3H 1× Imazethapyr+2× Imazamox; FIG. 3I 1× Imazethapyr+4× Imazamox; Pots L to R: LF2-RTC2/LM1-RTC1, LF1-RTC2/LM1-RTC1, LF3-RTC2\LM4-RTC1, mutated line P1003A205V, mutated line R0146G654E, sensitive control commercial variety Cypress, commercial hybrid CLXL745.
(§2) Trial consisted of 2 treatment regimens with Imazamox applications at approximately the preflood stage with rates of 0.5×, 1×, 2×, or 4×, either alone or 2 weeks following application of 1× Imazethapyr.
(§3) FIG. 4 Representative Pots 4 Weeks Post Application of Imazamox.

[2] = tested on: RT IMI hybrids (LF2-RTC2/LM1-RTC1, LF1-RTC2/LM1-RTC1, LF3-RTC2\LM4-RTC1); assay: 16GH-T7 greenhouse Imazamox trial, injury in RT IMI hybrids; settings: Imazamox 0.5×, 1×, 2× or 4× at about preflood stage, alone or 2 weeks after 1× Imazethapyr, any treatment
Text: as §1, §2, §3

[3] = tested on: heterozygous A205V hybrids; settings: 2 leaf and preflood application
Text: Trial: 2 leaf and preflood application of Imazethapyr or Kifix™ (imazapic/imazapir) herbicide on materials converted with RiceTec IMI traits and commercial IMI control.

A205V-G654E hybrids = assay: 15SA-T9 IMI conversion efficacy trial; settings: 2 applications (2 leaf and preflood)
Description: 2 leaf and preflood application of IMI herbicide on materials converted with RiceTec IMI traits and controls. All males included RTC1 (A205V) in their genome. Females with RTC2 (G654E) were not included due to limited seed numbers. Females were tested separately in 15GH-T8 using potted plant replications.

[4] = tested on: homozygous A205V (RTC1) mutant line (P1003A205V); assay: 16-T7 log sprayer trial, Imazethapyr, homozygous A205V line; settings: single application, all tested rates 8× (48 oz/acre) and lower
G654E/A205V hybrids = assay: 16-T7 log sprayer trial, Imazethapyr, G654E/A205V hybrids; settings: single application, half-step log sprayer, rates 16× to 1/128×; either hybrid
[5] = tested on: G654E (RTC2) homozygous line; assay: 16-T7 log sprayer trial, Imazethapyr, homozygous G654E line; settings: single application, half-step log sprayer, rates 16× to 1/128×

SMILES	injury [1]	injury [2]	tolerance as compared to the A205V-G654E hybrids [3]	injury rates (A205V-G654E hybrids)	% of injury 3 weeks post 3-4 leaf application [4]	% of injury 3 weeks post 3-4 leaf application (G654E/A205V hybrids)	% of injury 3 weeks post 3-4 leaf application [5]
COCc1cnc(C2=NC(C)(C(C)C)C(=O)N2)c(C(=O)O)c1 (stereo not shown) [Imazamox, imazamox]	injury was observed	No injury	–	–	–	–	–
CCc1cnc(C2=NC(C)(C(C)C)C(=O)N2)c(C(=O)O)c1 (stereo not shown) [Imazethapyr, imazethapyr]	–	–	reduced tolerance	very low injury rates	below 10%	no observed injury	lower than expected

— US11877553B2, “Effects of a plurality of mutations to improve herbicide resistance/tolerance in rice” (priority 2017, dated 2024)
